Our source for the Activity, ΔTm and Tm values is ChEMBL document CHEMBL1139253, “Effect of methyl substitution in a ligand on the selectivity and binding affinity for a nucleobase: a case study with isoxanthopterin and its derivatives” (Bioorg Med Chem, 2009).

Test [1] in a line: Binding affinity to target base C of 5'-TCC AGX GCA AC-3'/3'_AGG TCC CGT TG-5' 11 mer duplex DNA containing abasic site at 10 uM by fluorescence quenching measurement.
Test [2] can be described thus: Binding affinity to target base T of 5'-TCC AGX GCA AC-3'/3'_AGG TCT CGT TG-5' 11 mer duplex DNA containing abasic site assessed as melting temperature at 150 uM by spectrophotometric analysis relative to control.
Test [3] is described as follows: Binding affinity to target base A of 5'-TCC AGX GCA AC-3'/3'_AGG TCA CGT TG-5' 11 mer duplex DNA containing abasic site assessed as melting temperature at 150 uM by spectrophotometric analysis relative to control.
A short description of test [4]: Binding affinity to target base C of 5'-TCC AGX GCA AC-3'/3'_AGG TCC CGT TG-5' 11 mer duplex DNA containing abasic site assessed as melting temperature at 150 uM by spectrophotometric analysis relative to control.
Test [5] can be described thus: Binding affinity to target base G of 5'-TCC AGX GCA AC-3'/3'_AGG TCG CGT TG-5' 11 mer duplex DNA containing abasic site assessed as melting temperature at 150 uM by spectrophotometric analysis relative to control.
Test [6] is described as follows: Binding affinity to target base T of 5'-TCC AGX GCA AC-3'/3'_AGG TCT CGT TG-5' 11 mer duplex DNA containing abasic site assessed as melting temperature at 150 uM by spectrophotometric analysis.
Test [7] can be described thus: Binding affinity to target base A of 5'-TCC AGX GCA AC-3'/3'_AGG TCA CGT TG-5' 11 mer duplex DNA containing abasic site assessed as melting temperature at 150 uM by spectrophotometric analysis.
Test [8] in a line: Binding affinity to target base C of 5'-TCC AGX GCA AC-3'/3'_AGG TCC CGT TG-5' 11 mer duplex DNA containing abasic site assessed as melting temperature at 150 uM by spectrophotometric analysis.
Test [9] in a line: Binding affinity to target base G of 5'-TCC AGX GCA AC-3'/3'_AGG TCG CGT TG-5' 11 mer duplex DNA containing abasic site assessed as melting temperature at 150 uM by spectrophotometric analysis.
Test [10] can be described thus: Binding affinity to target base T of 5'-TCC AGX GCA AC-3'/3'_AGG TCT CGT TG-5' 11 mer duplex DNA containing abasic site at 10 uM by fluorescence quenching measurement.

A word on the ΔTm: it is the shift of the melting midpoint relative to a reference. In general, Tm refers to the temperature at which the thermal transition is half complete. Consider `Cn1c(=O)cnc2c(=O)[nH]c(N)nc21`, for which the Activity in [1] turned out to be 72%. Also, the ΔTm in [2] was found to be 1.8 °C; in test [3] it was 0.2 °C; in test [4], 5.9 °C; in [5], 0.9 °C. Moreover, the Tm in [6] was found to be 29.7 °C; in test [7] it was 34 °C; in test [8], 35.1 °C; in test [9], 34.9 °C.

In test [10], `Cn1c(N)nc2[nH]c(=O)cnc2c1=O` had an Activity of 72.9%. The ΔTm was 6 °C in test [2], 1.8 °C in test [3], 0.4 °C in test [4] and 0.9 °C in test [5]. The Tm in test [6] was found to be 33.9 °C; in test [7] it was 35.6 °C; in [8] it was 29.6 °C; in test [9] it was 34.9 °C.

With `Nc1nc2[nH]c(=O)cnc2c(=O)[nH]1`, the Activity was determined as 43.5% in test [1] and 51.7% in test [10]. Further, the ΔTm in test [2] is 4.8 °C; in test [3] it was 2.2 °C; in test [4], 4.5 °C; in [5], -0.4 °C. Moreover, the Tm in test [6] was determined as 32.7 °C; in test [7], 36 °C; in test [8] it was 33.7 °C; in test [9], 33.6 °C.
